Test results reported in patent publication US20240065270A1 (priority 2018, published 2024).
Entries after “also recorded” stand apart in the source; their conditions may differ.

Key:
[1] = tested on: plants expressing CesA6 carrying mis-sense mutations at the catalytic site; assay: Growth of transgenic plants expressing CesA6 with mis-sense mutations at the hypothesized Cellulosin binding sites; assay type: in vivo, Arabidopsis; details: cesa6 loss-of-function mutant background; compared with DMSO control
Description: (§1) Recently, we discovered a new cellulose synthase inhibitor Cellulosin and a group of cesa6 mutants that carry mis-sense mutations at the central cytoplasmic region that contains the catalytic motif and are resistant to Cellulosin. In order to test whether Cellulosin has the same mode of action as isoxaben, indaziflam and C17, we first tested the growth of isoxaben resistant mutants on media supplemented with Cellulosin. […] We next tested the growth of our Cellulosin resistant mutants on isoxaben, indaziflam and C17.

[2] = tested on: Arabidopsis wildtype plants; assay: Growth (root length) of Arabidopsis wildtype plants on media with low-dose herbicides, alone and combined; assay type: in vivo
Method: Because Cellulosin has different target as isoxaben, indaziflam and C17. Since the need to avoid the development of herbicide-resistant weeds that is caused by repetitive application of the same herbicide is utmost, we decided to test whether application of Cellulosin together with isoxaben, indaziflam and C17 would make it possible to control the weeds more efficiently with reduced dosage of two herbicides.
Statistically significant differences in right panels were determined by one-way ANOVA test followed by Tukey's multiple comparisons test. Different letters of root length of seedlings indicate significant difference between groups (p<0.05). N=12.
[…] Bar, 1 cm.
Because Cellulosin and isoxaben target CesA at different sites, it allowed us to hypothesize that application of both herbicides at the same time will make it possible to control the weeds with reduced dosage of both herbicides. This should also avoid the development of herbicide-resistant weeds that is caused by repetitive application of the same herbicide. We tested the growth of Arabidopsis at lower dosage of both Cellulosin and isoxaben.

[3] = tested on: Cellulosin resistant mutants (cesa6); assay: Growth (root length) of Cellulosin resistant cesa6 mutants on supplemented media; assay type: in vivo, Arabidopsis; details: media supplemented with the compound, compared with DMSO control
Description: as §1
FIGS. 2E-2G depict quantifications of root length of Cellulosin resistant mutants on media supplemented with isoxaben (FIG. 2E), indaziflam (FIG. 2F), and C17 (FIG. 2G) in comparison with DMSO control, Statistically significant differences in right panels were determined by one-way ANOVA test followed by Tukey's multiple comparisons test. Different letters of root length of seedlings indicate significant difference between groups (p<0.05). Bars: 1 cm.

[4] = tested on: Arabidopsis mutants ixr1-1, ixr1-2 and ixr2-1; assay: Growth (root length) of isoxaben resistant mutants ixr1-1, ixr1-2, ixr2-1 on supplemented media; assay type: in vivo; details: media supplemented with the compound
Description: as §1
Wildtype (WT) Arabidopsis and its mutants ixr1-1, ixr1-2, and ixr2-1 are grown on media supplemented with DMSO (FIGS. 1A-1B), isoxaben (FIGS. 1C-1D) or Cellulosin (FIGS. 1E-1F) and their quantifications on their root length. Arabidopsis mutants ixr1-1, ixr1-2 and ixr2-1 have longer roots in compare with wildtype (Col) on media supplemented with isoxaben. […] Bars: 1 cm

Row | SMILES | resistance / sensitivity in growth of plants expressing mutated CesA6 [1] | plant growth inhibition ([2]; 0.06 nM indaziflam alone in growth media) | plant growth inhibition ([2]; 0.25 nM indaziflam alone in growth media) | sensitivity of Cellulosin resistant mutants in growth (root length) [3] | plant growth inhibition ([2]; 3.5 nM isoxaben alone, nine days old plants) | plant growth inhibition ([2]; 4 nM isoxaben alone in growth media) | growth / root length of isoxaben resistant mutants compared with wildtype (Col) [4]
1 | Cc1ccc2c(c1)[C@H](Nc1nc(N)nc(C(C)F)n1)[C@@H](C)C2 (stereo partly drawn) [indaziflam] | do not show resistance; also recorded: they have the same sensitivity | did not inhibit plant growth; also recorded: does not significantly inhibit plant growth | not inhibited | Most of our mutants that are resistant to Cellulosin are sensitive; also recorded: only a few of our mutants show reduced sensitivity |  |  | 
2 | CCC(C)(CC)c1cc(NC(=O)c2c(OC)cccc2OC)on1 [isoxaben, N-3[1-ethyl-1-methylpropyl]-5-isoxazolyl-2,6, or dimethoxybenzamide] | do not show resistance; also recorded: they have the same sensitivity |  |  | Most of our mutants that are resistant to Cellulosin are sensitive; also recorded: only a few of our mutants show reduced sensitivity | Neither 300 nM Cellulosin nor 3.5 nM isoxaben significantly inhibits plant growth; also recorded: does not significantly inhibit plant growth | not inhibited; also recorded: did not inhibit plant growth; also recorded: does not significantly inhibit plant growth | longer roots
